{"source": "patent US20210107865A1", "about": "“ALIPHATIC AMINE AND ITS PREPARATION METHOD AND USE” (COVESTRO D[…], priority 2017, published 2021)", "test": "Solubility of lysine in amine compounds and solvents", "type": "physicochemical", "conditions": "at 100° C. under normal pressure", "data": [{"smiles": "NCCCC[C@H](N)C(=O)O", "note": "[lysine, L-lysine]", "values": [{"measurement": "solubility of lysine in 1,5-pentanediamine", "setting": "in 1,5-pentanediamine", "value": "solubility of lysine in 1,5-pentanediamine is 33 g/100 g,"}, {"measurement": "solubility of lysine in 1,6-hexanediamine", "setting": "in 1,6-hexanediamine", "value": "is 4.6 g/100 g, measured at 100 °C under normal pressure."}, {"measurement": "solubility of lysine in cyclohexanol", "setting": "in cyclohexanol", "value": "Ltd. The solubility of lysine in cyclohexanol is 0.01 g/100 g/100 g"}, {"measurement": "solubility of lysine in ethylene glycol", "setting": "in ethylene glycol", "value": "The solubility of lysine in ethylene glycol is 20 g/100 g,"}, {"measurement": "solubility of lysine in isophoronediamine", "setting": "in isophoronediamine", "value": "is 5.2 g/100 g, measured at 100 °C under normal pressure."}]}]}
